In US7563805B2, “Tri-, tetra-substituted-3-aminopyrrolidine derivative” (Daiichi Pharmaceutical Co., Ltd., priority 2005, dated 2009):
In brackets after ≈: the same amount, converted by molar mass.

Columns and labels:
in vivo = conditions: female, cynomolgus monkey, po, 5 mg/kg
hERG K+ channel = hERG K+ channel (Homo sapiens, UniProt Q12809); assay: hERG-K^+ channel blocking effect
E. coli NIHJ = assay: antibacterial activity (MIC), standard method of Japanese Society of Chemotherapy; conditions: Escherichia coli
S. marscecens, 10100 = assay: as above
P. aeruginosa, 32121 = assay: as above; conditions: Pseudomonas aeruginosa
S. aureus, 209P = assay: as above; conditions: Staphylococcus aureus
S. epidermidis, 56500 = assay: as above; conditions: Staphylococcus epidermidis, 56500, S. epidermidis
E. faecalis, ATCC 19433 = assay: as above; conditions: E. faecalis
[1] = tested on: S. aureus, 87037 (LVFX-resistant MRSA); assay: as above; conditions: Staphylococcus aureus, MRSA, S. aureus, 87037 (LVFX-resistant MRSA)

Chain of hERG K+ channel (Q12809 whole entry): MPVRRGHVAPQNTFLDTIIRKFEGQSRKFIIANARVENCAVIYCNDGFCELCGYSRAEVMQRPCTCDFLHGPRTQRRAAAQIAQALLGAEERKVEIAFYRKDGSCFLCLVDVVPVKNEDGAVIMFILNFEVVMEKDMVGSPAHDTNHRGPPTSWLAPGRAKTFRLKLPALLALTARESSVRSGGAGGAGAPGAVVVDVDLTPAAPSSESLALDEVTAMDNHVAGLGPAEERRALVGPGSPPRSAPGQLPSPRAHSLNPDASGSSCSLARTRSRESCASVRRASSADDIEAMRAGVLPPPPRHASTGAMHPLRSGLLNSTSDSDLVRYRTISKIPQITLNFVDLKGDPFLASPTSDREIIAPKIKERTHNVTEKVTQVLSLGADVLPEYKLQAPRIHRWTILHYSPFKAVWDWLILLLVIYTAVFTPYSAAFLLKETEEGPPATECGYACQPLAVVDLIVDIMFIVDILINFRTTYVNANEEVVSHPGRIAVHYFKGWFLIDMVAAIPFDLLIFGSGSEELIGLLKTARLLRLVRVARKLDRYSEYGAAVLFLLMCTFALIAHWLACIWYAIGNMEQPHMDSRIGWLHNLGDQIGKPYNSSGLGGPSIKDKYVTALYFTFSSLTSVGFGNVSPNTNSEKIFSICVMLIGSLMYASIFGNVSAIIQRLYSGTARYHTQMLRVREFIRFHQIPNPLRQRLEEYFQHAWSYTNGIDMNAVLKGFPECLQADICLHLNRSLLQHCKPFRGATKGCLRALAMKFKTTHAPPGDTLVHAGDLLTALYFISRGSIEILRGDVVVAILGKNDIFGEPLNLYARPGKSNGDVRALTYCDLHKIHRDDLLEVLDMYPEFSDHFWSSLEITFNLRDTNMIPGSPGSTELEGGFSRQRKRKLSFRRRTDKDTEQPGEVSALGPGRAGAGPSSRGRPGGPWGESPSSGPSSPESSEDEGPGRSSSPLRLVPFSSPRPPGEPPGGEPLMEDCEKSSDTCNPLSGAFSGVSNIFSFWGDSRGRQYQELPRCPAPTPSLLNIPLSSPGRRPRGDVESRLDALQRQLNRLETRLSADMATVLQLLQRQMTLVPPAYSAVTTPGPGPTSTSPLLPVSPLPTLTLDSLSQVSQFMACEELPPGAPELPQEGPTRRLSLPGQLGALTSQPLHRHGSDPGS

Which AUC(0-t) (in vivo) does the source give for `COc1c(N2CC(C)(N)C3(CC3)C2)c(F)cc2c(=O)c(C(=O)O)cn([C@@H]3C[C@@H]3F)c12` (stereo partly drawn) [Example 9, 7-(7-Amino-7-methyl-5-azaspiro[2.4]heptan-5-yl)-6-fluoro-1-[(1R,2S)-2-fluorocyclopropyl]-8-methoxy-1,4-dihydro-4-oxoquinoline-3-carboxylic acid] here?
The AUC(0-t) was 16900 ng·h/mL.

What about the Cmax (in vivo) of the same compound?
The Cmax was 2180 ng/mL.

What about the half-life (in vivo) of the same compound?
The half-life was 4.8 h.

What about the inhibition at 30 µM (hERG K+ channel) of the same compound?
The inhibition at 30 µM was 7.4 ± 4.5%.

What about the inhibition at 100 µM (hERG K+ channel) of the same compound?
The inhibition at 100 µM was 10.2 ± 5.4%.

What about the inhibition at 300 µM (hERG K+ channel) of the same compound?
The inhibition at 300 µM was 20.1 ± 7.4%.

And the MIC (E. coli NIHJ)?
The MIC was 0.025 µg/mL (≈ 0.0596 µM).

And the MIC (S. marscecens, 10100)?
The MIC was 0.1 µg/mL (≈ 0.238 µM).

And the MIC (P. aeruginosa, 32121)?
Its MIC is 0.2 µg/mL (≈ 0.477 µM).

What about the MIC (S. aureus, 209P) of the same compound?
The MIC was 0.025 µg/mL (≈ 0.0596 µM).

What about the MIC (S. epidermidis, 56500) of the same compound?
The MIC was 0.1 µg/mL (≈ 0.238 µM).

What about the MIC (E. faecalis, ATCC 19433) of the same compound?
The MIC was 0.2 µg/mL (≈ 0.477 µM).

What about the MIC [1] of the same compound?
The MIC was 0.78 µg/mL (≈ 1.86 µM).
